The results in this text go back to US12590065B2, “Levorphanol prodrugs and processes for making and using them” (Zevra Therapeutics, Inc., priority 2017, dated 2026).

The data set in a line: stability of the deprotected derivative in aqueous solution. In kind it is physicochemical. The note with it: observed after Boc deprotection with 4N HCl in dioxane. The protocol: A solution of 38 in 4N HCl in dioxane (5 mL) was stirred at room temperature for 2 hours. Solvent was evaporated under reduced pressure, the residue was co-evaporated with IPAc and dried to give 40 in quantitative yield. The deprotected derivative 40 was not stable in aqueous solution. Compound 40 was converted to the acetyl derivative 42.

Consider `CC(C)[C@H](N)C(=O)OCOC(=O)Oc1ccc2c(c1)[C@@]13CCCC[C@H]1[C@@H](C2)N(C)CC3` [Compound 40, 3-(Val-OCH2OC(O))-Levorphanol], for which the “stability in aqueous solution” value is “not stable”.
